Measured values reported in patent publication US20160124002A1, “METHOD FOR DETECTING HYPOXIA OR DIAGNOSING HYPOXIA-RELATED DISEASES” (SEOUL NATIONAL UNIVERSITY R&DB FOUNDATION, priority 2013, published 2016).

Test system: THP-1 cell line
Assay: Metabolites in culture medium of THP-1 cells under low oxygen with HIF-1 inhibition (LC/Q-TOF MS)
Format: cell-based, human
Conditions: THP-1 culture medium, low oxygen (1% O2)
Protocol: A THP-1 cell line, a human monocyte-derived cell line was cultured in the conditions of regular oxygen (21% oxygen), low oxygen (1% oxygen), and regular oxygen after low oxygen (reoxygenation), and then, the metabolites included in the culture media were identified and quantified using a LC/Q-TOF MS analysis as follows.
The human-derived monocyte cells (THP-1) (Korean Cell Line Bank, KCLB No. 40202) at 5×10^5 cells/4 mL medium were cultured in DMEM (Dulbecco's modified Eagle's medium) including 10% FBS (fetal bovine serum) under the condition of regular oxygen (21% O2, 5% CO2) at 37° C. for 24 hours, the condition of low oxygen (1% O2, 5% CO2) at 37° C. for 24 hours, or the condition of regular oxygen for 16 hours after low oxygen for 8 hours (reoxygenation) at 37° C.
After that, the media without the cells were isolated to obtain the samples to be analyzed. The media were subjected to a centrifugation at 3000 rpm and 4° C. to obtain supernatants only. The supernatants were then aliquoted and stored in a −70° C. cryogenic deep-freezer, and were thawed immediately before use.
In order to decrease the expression of a hypoxia-inducible factor-1 (HIF-1), a major regulator in a low oxygen environment, two types of si-HIF-1alpha (#1, 5′-CAAAGUUAAAGCAUCAGG-3′; #2, 5′-UGUACUGUCCUGUGGUGA-3′) were prepared, and then used for transfection into the cells using Lipofectamine RNA iMAX reagents (Life Technologies, USA) following the manufacturer's instruction. In addition, 2-methoxyestradiol (2ME2) and 17-N-Allylamino-17-demethoxygeldanamycin (17-AAG) used (Selleck chemicals) as the inhibitors of HIF-1 were used, and YC-1 was purchased from A.G. Scientific. The cells were treated also with 2ME2 and 17-AAG at the concentrations of 100 μM during the exposure of a low oxygen condition.
H2O (400 μl) at 4° C. and medium (100 μl) were put into a 1.5 ml micro tube so as to be diluted. After that, the sample was mixed well using a vortex, and then was filtered/centrifuged at 4° C. and 14,000 g for 20 minutes to obtain the supernatant thereof. The supernatant was collected in assay vials. In addition, for a QC (quality control) assay, the diluted samples of 50 μl from all the samples were mixed (pooling).
The samples that were prepared as described above were isolated by the system equipped with a reverse column, Zorbax SB-C18, 50×2.1 mm, 1.8 μm (Agilent Technologies, USA) in Binary Agilent 1200 series HPLC (Agilent Technologies). At this time, the assay sample in the amount of 5 μl was injected so as to pass through the column that was heated at 40° C. The metabolite sample was subjected to a gradient elution with 98% solvent A (2 mM ammonium formate and 0.1% formic acid in H2O) and 2% solvent B (0.1% formic acid in methanol) at the rate of 400 μl/min for 21 minutes. In order to avoid a cross-contamination, a blank run was performed between the sample runs.
ESI algorithm was used by coupling an Agilent 6530 quadrupole time-of-flight (Q-TOF) mass spectrometer (Agilent Technologies) with HPLC. Four centroid data per one second for one spectrum from 100 to 1100 m/z were obtained, and the m/z for all the spectra were calibrated in real time using the reference value externally supplied.
The metabolites were first identified from the mass spectra in the HMDB (http://www.hmdb.ca/) and METLIN (http://metlin.scripps.edu/) database using a software (Agilent MassHunter Qualitative Analysis (version B.05.00), Agilent Mass Profiler Professional (version B.02.02)). After that, the cleavage pattern by the LC/MS/MS assay of the corresponding metabolite was subjected to an additional confirmation work as compared to a practical standard material (Cayman, Ann Arbor, Mich., USA).
The relative concentration of the corresponding metabolites was calculated using the chromatograph area of the respective metabolite in the culture solution obtained from the corresponding cells. […]

[1] = HIF-1 expression inhibited by si-RNA, FIG. 3
[2] = treated with HIF-1 inhibitor (2ME2 and 17-AAG at 100 μM), FIG. 4

si-HIF-1a#1: si-RNA against HIF-1alpha, 5′-CAAAGUUAAAGCAUCAGG-3′ (chemistry not given here)
5-HETE that was increased under the low oxygen condition (H) [1]: decreased
5-oxoETE that was increased under the low oxygen condition (H) [1]: decreased

si-HIF-1a#2: si-RNA against HIF-1alpha, 5′-UGUACUGUCCUGUGGUGA-3′ (chemistry not given here)
5-HETE that was increased under the low oxygen condition (H) [1]: decreased
5-oxoETE that was increased under the low oxygen condition (H) [1]: decreased

COc1cc2c(cc1O)CC[C@@H]1[C@@H]2CC[C@]2(C)[C@@H](O)CC[C@@H]12 [2ME2, 2-methoxyestradiol]
5-HETE that was increased under the low oxygen condition (H) [2]: decreased
5-oxoETE that was increased under the low oxygen condition (H) [2]: decreased

OCc1ccc(-c2nn(Cc3ccccc3)c3ccccc23)o1 [YC-1]
5-HETE that was increased under the low oxygen condition (H) [2]: decreased
5-oxoETE that was increased under the low oxygen condition (H) [2]: decreased

C=CCNC1=C2C[C@@H](C)C[C@H](OC)[C@H](O)[C@@H](C)/C=C(\C)[C@H](OC(N)=O)[C@@H](OC)/C=C\C=C(/C)C(=O)NC(=CC1=O)C2=O [17-AAG, 17-N-Allylamino-17-demethoxygeldanamycin]
5-HETE that was increased under the low oxygen condition (H) [2]: decreased
5-oxoETE that was increased under the low oxygen condition (H) [2]: decreased
